Target: T1, human RORγ-LBD (Homo sapiens, UniProt P51449)
T1 construct: made in house; host or cells: E. coli (BL-21)
T1 sequence (P51449 262-518): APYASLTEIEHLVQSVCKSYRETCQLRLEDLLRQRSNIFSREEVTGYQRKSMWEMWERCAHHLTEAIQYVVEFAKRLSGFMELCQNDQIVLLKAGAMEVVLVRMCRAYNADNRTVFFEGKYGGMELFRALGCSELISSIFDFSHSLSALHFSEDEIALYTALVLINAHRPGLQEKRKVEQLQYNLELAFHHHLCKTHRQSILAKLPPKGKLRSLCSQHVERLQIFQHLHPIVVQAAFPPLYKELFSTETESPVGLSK
Assay: ROR gamma coactivator peptide recruitment Alphascreen assay (RORγ-LBD binding to GRIP1 coactivator peptide)
Assay type: biochemical
Settings: 5 nM human RORγ-LBD, 30 nM 7-β-hydroxycholesterol, 50 nM biotinylated GRIP1 coactivator peptide, overnight incubation at room temperature; read-out: result (pIC50, RORγ coactivator peptide recruitment Alphascreen assay) (converted)
How it was run: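 His/Flag-tagged human RORγ-LBD (aa 262-518, E. coli-expressed, 5 nM) with agonist 7-β-hydroxycholesterol (30 nM) and biotinylated GRIP1 LXXLL peptide (50 nM) in HEPES pH 7.4 buffer, 2.5% DMSO. Compound 1-in-2 dilutions; Alphascreen bead signal read after overnight incubation at room temperature; pIC50 calculated.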

Row | SMILES | IC50 [nM]
1 | CC1(C)[C@@H]2C[C@H](N(CC(=O)c3c(Cl)ccc(F)c3Cl)C(=O)c3cnn([C@H]4CC[C@](C)(C(=O)O)CC4)c3C(F)(F)F)C[C@@H]21 [Example 763, trans-4-(4-((2-(2,6-dichloro-3-fluorophenyl)-2-oxoethyl)((1R,3r,5S)-6,6-dimethylbicyclo[3.1.0]hex-3-yl)carbamoyl)-5-(trifluoromethyl)-1H-pyrazol-1-yl)-1-methylcyclohexanecarboxylic acid] | 1.62
2 | CC(C)(C)CN(CC(=O)c1c(Cl)ccc(F)c1Cl)C(=O)c1cnn([C@H]2CC[C@](C)(C(=O)O)CC2)c1C(F)(F)F [Example 764, trans-4-(4-((2-(2,6-dichloro-3-fluorophenyl)-2-oxoethyl)(2,2-dimethylpropyl)carbamoyl)-5-(trifluoromethyl)-1H-pyrazol-1-yl)-1-methylcyclohexanecarboxylic acid] | 4.37
3 | CC(C)CCN(CC(=O)c1c(Cl)cncc1Cl)C(=O)c1cnn([C@H]2C[C@@H]3[C@H](C2)[C@@H]3C(=O)O)c1C(F)(F)F [Example 765, (1R,3r,5S,6r)-3-(4-((2-(3,5-dichloro-4-pyridinyl)-2-oxoethyl)(3-methylbutyl)carbamoyl)-5-(trifluoromethyl)-1H-pyrazol-1-yl)bicyclo[3.1.0]hexane-6-carboxylic acid] | 245
4 | C[C@@H]1C[C@@H](n2ncc(C(=O)N(CCC(F)(F)F)CC(=O)c3c(Cl)cncc3Cl)c2C(F)(F)F)CC[C@@H]1C(=O)O [Example 766, (1S,2R,4S)-4-(4-((2-(3,5-dichloro-4-pyridinyl)-2-oxoethyl)(3,3,3-trifluoropropyl)carbamoyl)-5-(trifluoromethyl)-1H-pyrazol-1-yl)-2-methylcyclohexanecarboxylic acid] | 32.4
5 | C[C@H]1C[C@H](n2ncc(C(=O)N(CCC(F)(F)F)CC(=O)c3c(Cl)cncc3Cl)c2C(F)(F)F)CC[C@H]1C(=O)O [Example 767, (1R,2S,4R)-4-(4-((2-(3,5-dichloro-4-pyridinyl)-2-oxoethyl)(3,3,3-trifluoropropyl)carbamoyl)-5-(trifluoromethyl)-1H-pyrazol-1-yl)-2-methylcyclohexanecarboxylic acid] | 372
6 | Cc1ncc(Cl)c(C(=O)CN(Cc2cc(F)cc(F)c2)C(=O)c2cnn([C@H]3CC[C@](C)(C(=O)O)CC3)c2C(F)(F)F)c1Cl [Example 768, trans-4-(4-((2-(3,5-dichloro-2-methyl-4-pyridinyl)-2-oxoethyl)(3,5-difluorobenzyl)carbamoyl)-5-(trifluoromethyl)-1H-pyrazol-1-yl)-1-methylcyclohexanecarboxylic acid] | 3.98
7 | O=C(CN(CC1(F)CCCC1)C(=O)c1cnn([C@H]2C[C@@H]3[C@H](C2)[C@@H]3C(=O)O)c1C(F)(F)F)c1c(Cl)cccc1Cl [Example 769, (1R,3r,5S,6s)-3-(4-((2-(2,6-dichlorophenyl)-2-oxoethyl)((1-fluorocyclopentyl)methyl)carbamoyl)-5-(trifluoromethyl)-1H-pyrazol-1-yl)bicyclo[3.1.0]hexane-6-carboxylic acid] | 18.6
8 | CC(C)(C)CN(CC(=O)c1c(Cl)cncc1Cl)C(=O)c1cnn([C@H]2C[C@@H]3[C@H](C2)[C@@H]3C(=O)O)c1C(F)(F)F [Example 770, (1R,3r,5S,6s)-3-(4-((2-(3,5-dichloro-4-pyridinyl)-2-oxoethyl)(2,2-dimethylpropyl)carbamoyl)-5-(trifluoromethyl)-1H-pyrazol-1-yl)bicyclo[3.1.0]hexane-6-carboxylic acid] | 42.7
9 | CC(C)(C)CN(CC(=O)c1c(Cl)cncc1Cl)C(=O)c1cnn([C@H]2C[C@]3(C[C@H](C(=O)O)C3)C2)c1C(F)(F)F (some centres unmarked) [Example 771, (4r)-6-(4-((2-(3,5-dichloro-4-pyridinyl)-2-oxoethyl)(2,2-dimethylpropyl)carbamoyl)-5-(trifluoromethyl)-1H-pyrazol-1-yl)spiro[3.3]heptane-2-carboxylic acid] | 6.31
10 | C[C@H](C(=O)O)[C@H]1C[C@H](n2ncc(C(=O)N(CC(=O)c3c(Cl)cccc3Cl)[C@H]3C[C@@H]4[C@H](C3)C4(C)C)c2C(F)(F)F)C1 [Example 772, (S)-2-((1R,3S)-3-(4-((2-(2,6-dichlorophenyl)-2-oxoethyl)((1R,3r,5S)-6,6-dimethylbicyclo[3.1.0]hexan-3-yl)carbamoyl)-5-(trifluoromethyl)-1H-pyrazol-1-yl)cyclobutyl)propanoic acid] | 3.72
11 | C[C@@H]1C[C@@H](n2ncc(C(=O)N(CC(=O)c3c(Cl)cncc3Cl)C[C@@H]3CCC(C)(C)O3)c2C(F)(F)F)CC[C@@H]1C(=O)O [Example 774, (1S,2R,4S)-4-(4-((2-(3,5-dichloro-4-pyridinyl)-2-oxoethyl)(((2S)-5,5-dimethyltetrahydro-2-furanyl)methyl)carbamoyl)-5-(trifluoromethyl)-1H-pyrazol-1-yl)-2-methylcyclohexanecarboxylic acid] | 21.9
12 | CC1(CN(CC(=O)c2c(Cl)cncc2Cl)C(=O)c2cnn([C@H]3CC[C@H](CC(=O)O)CC3)c2C(F)(F)F)CCC1 [Example 775, (trans-4-(4-((2-(3,5-dichloro-4-pyridinyl)-2-oxoethyl)((1-methylcyclobutyl)methyl)carbamoyl)-5-(trifluoromethyl)-1H-pyrazol-1-yl)cyclohexyl)acetic acid] | 3.02
13 | C[C@]1(C(=O)O)CC[C@H](n2ncc(C(=O)N(CCC3CC3)CC(=O)c3c(Cl)cncc3Cl)c2C(F)(F)F)CC1 [Example 776, trans-4-(4-((2-cyclopropylethyl)(2-(3,5-dichloro-4-pyridinyl)-2-oxoethyl)carbamoyl)-5-(trifluoromethyl)-1H-pyrazol-1-yl)-1-methylcyclohexanecarboxylic acid] | 21.9
14 | Cc1cc(Cl)c(C(=O)CN(CCC2CC2)C(=O)c2cnn([C@H]3CC[C@](C)(C(=O)O)CC3)c2C(F)(F)F)c(Cl)c1 [Example 777, trans-4-(4-((2-cyclopropylethyl)(2-(2,6-dichloro-4-methylphenyl)-2-oxoethyl)carbamoyl)-5-(trifluoromethyl)-1H-pyrazol-1-yl)-1-methylcyclohexanecarboxylic acid] | 4.27
15 | Cc1cc(F)c(C(=O)CN(CC2(C)CCC2)C(=O)c2cnn([C@H]3CC[C@](C)(C(=O)O)CC3)c2C(F)(F)F)c(Cl)c1 [Example 778, trans-4-(4-((2-(2-chloro-6-fluoro-4-methylphenyl)-2-oxoethyl)((1-methylcyclobutyl)methyl)carbamoyl)-5-(trifluoromethyl)-1H-pyrazol-1-yl)-1-methylcyclohexanecarboxylic acid] | 4.47
16 | Cc1cc(Cl)c(C(=O)CN(CCOC(C)(C)C)C(=O)c2cnn([C@H]3CC[C@](C)(C(=O)O)CC3)c2C(F)(F)F)c(Cl)n1 [Example 779, trans-4-(4-((2-(2,4-dichloro-6-methyl-3-pyridinyl)-2-oxoethyl)(2-((2-methyl-2-propanyl)oxy)ethyl)carbamoyl)-5-(trifluoromethyl)-1H-pyrazol-1-yl)-1-methylcyclohexanecarboxylic acid] | 18.2
17 | C[C@H](C(=O)O)[C@H]1CC[C@H](n2ncc(C(=O)N(CC(=O)c3c(Cl)cncc3Cl)Cc3cc(F)cc(F)c3)c2C(F)(F)F)CC1 [Example 780, 2-(trans-4-(4-((2-(3,5-dichloro-4-pyridinyl)-2-oxoethyl)(3,5-difluorobenzyl)carbamoyl)-5-(trifluoromethyl)-1H-pyrazol-1-yl)cyclohexyl)propanoic acid] | 7.59

Reference: US9365522B2, “Pyrazole amide derivative” (AMGEN INC., priority 2015, dated 2016)
